Experimental data as given in PMC8877233, “The Hydrophobicity and Antifungal Potentiation of Burkholdine Analogues” (Molecules, 2022).
≈ marks a conversion by molar mass, not a printed value. Starred links: 1 amine or outer side, 2 acyl side, 3 side chain; linkers in the order of their positions; H or OH if unused. Positions of bridges follow the written chain, without caps; N, C: chain ends. Non-standard residues stand in square brackets, D forms with d. Residues, ends and D or L forms follow the SMILES beside them. *: point of attachment. X12 = CCCCCCCCCCC(=O)N[C@H](C(=O)NC[C@H](CC(=O)[*:1])N[*:2])[C@@H](C)O; X11 = CCCCCCCCNC(=O)[C@H](O)[C@@H](O)C(=O)NC[C@H](CC(=O)[*:1])N[*:2]; X10 = CCCCCCCCCCCC(=O)N[C@@H](CO)C(=O)NC[C@@H](CC(=O)[*:1])N[*:2]; X13 = CCCCCCCCCCC(=O)N[C@@H](CO)C(=O)NC[C@H](CC(=O)[*:1])N[*:2]; X5 = CCCCCCCCCCCC(=O)N[C@@H](CO)C(=O)NC[C@H](CC(=O)[*:1])N[*:2]; X6 = CCCCCCCCCCC(=O)N[C@@H](CO)C(=O)NC[C@@H](CC(=O)[*:1])N[*:2]; X7 = CCCCCCCCCCCC(=O)N[C@H](CO)C(=O)NC[C@@H](CC(=O)[*:1])N[*:2]; X1 = CCCCCCCCCCC(=O)N[C@H](CO)C(=O)NC[C@@H](CC(=O)[*:1])N[*:2]; X4 = CCCCCCCCCCCC(=O)N[C@H](CO)C(=O)NC[C@H](CC(=O)[*:1])N[*:2]; X8 = CCCCCCCCCCC(=O)N[C@H](CO)C(=O)NC[C@H](CC(=O)[*:1])N[*:2]; X9 = CCCCCCCCNC(=O)[C@H](O)[C@@H](O)C(=O)*; Undecanoyl = CCCCCCCCCCC(=O)*; Lauroyl = CCCCCCCCCCCC(=O)*; Orn = NCCC[C@H](N)C(=O)O

Key:
[1] = RP-HPLC retention time as measure of hydrophilicity/hydrophobicity; format: physicochemical; details: chromatographic, Cosmosil 5C18-AR-II 4.6 x 150 mm, linear gradient 30–70% MeCN/H2O (0.1% TFA) for 30 min, 1 mL/min, UV 220 nm
Experimental: […] In all cases, the retention times of the (S)-Dab-containing peptides were shorter than those of the (R)-Dab-containing peptides, which were similar to those bearing L-Orn. The retention times of the cyclic peptides were shorter for Tat > D-Ser > L-Thr > L-Ser, while peptides bearing the undecanoic acid moiety eluted […] than those bearing the decanoic acid by about 2 min.

[2] = test system: S. cerevisiae (ATCC204504); format: cell-based; details: ATCC204504, 24 h
Experimental: Bacto yeast extract (0.63 g, 70161, Fluka, Barcelona, Spain), peptone (1.00 g, 26421, Mikuni, Japan), and glucose (1.00 g, 16806-25, Nacalai tesque, Japan) were added to H2O (50 mL) at room temperature and the mixture was heated to 60 °C. After 30 min, the mixture was sterilized by heating in an autoclave at 121 °C for 20 min.
DMSO (8 µL, 13406-55, Nacalai tesque, Japan) was added to YPD medium (750 µL). The test fungus culture solution (3 µL) was added to this solution (1.5 mL).
The inhibitor (each 1.0 mg; 3a–h, 4a–b, 5a–b, 6a–b, 7, 8) was dissolved in DMSO (40 µL).
The prepared test bacteria (50 µL) were placed in A1–A12 of a 96-well plate. Bk analogue (50 µL) was added to A1, pipetting was performed, and then 50 µL was extracted from A1 and placed in A2. This operation was repeated until A11, and 50 µL extracted from A11 was discarded. The well plate was closed and incubated at 30 °C. After 24 h, the MIC values were evaluated.

Structure (SMILES) | tR [1] | MIC [2]
CCCCCCCCCCC(=O)N[C@@H](CO)C(=O)NC[C@@H]1CC(=O)N[C@H](CO)C(=O)N[C@H](Cc2ccc(O)cc2)C(=O)N[C@H](CC(N)=O)C(=O)NCC(=O)N[C@@H](CC(N)=O)C(=O)N[C@@H](CO)C(=O)N[C@@H](CC(N)=O)C(=O)N1 [Compound 3a, Cyclo-[Undecanoic Acid-Ser-(S)-7-D-Ser-D-Tyr-D-Asn-Gly-Asn-Ser-Asn]] ([dS][dY][dN]GNSN; linker N-C via X13) | 9.3 min | >200 µg/mL
CCCCCCCCCCCC(=O)N[C@@H](CO)C(=O)NC[C@@H]1CC(=O)N[C@H](CO)C(=O)N[C@H](Cc2ccc(O)cc2)C(=O)N[C@H](CC(N)=O)C(=O)NCC(=O)N[C@@H](CC(N)=O)C(=O)N[C@@H](CO)C(=O)N[C@@H](CC(N)=O)C(=O)N1 [Compound 3b, Cyclo-[Dodecanoic Acid-Ser-(S)-7-D-Ser-D-Tyr-D-Asn-Gly-Asn-Ser-Asn]] ([dS][dY][dN]GNSN; linker N-C via X5) | 11.7 min | 100 µg/mL (≈ 90.4 µM)
CCCCCCCCCCC(=O)N[C@H](CO)C(=O)NC[C@@H]1CC(=O)N[C@H](CO)C(=O)N[C@H](Cc2ccc(O)cc2)C(=O)N[C@H](CC(N)=O)C(=O)NCC(=O)N[C@@H](CC(N)=O)C(=O)N[C@@H](CO)C(=O)N[C@@H](CC(N)=O)C(=O)N1 [Compound 3c, Cyclo-[Undecanoic Acid-D-Ser-(S)-7-D-Ser-D-Tyr-D-Asn-Gly-Asn-Ser-Asn]] ([dS][dY][dN]GNSN; linker N-C via X8) | 9.4 min | >200 µg/mL
CCCCCCCCCCCC(=O)N[C@H](CO)C(=O)NC[C@@H]1CC(=O)N[C@H](CO)C(=O)N[C@H](Cc2ccc(O)cc2)C(=O)N[C@H](CC(N)=O)C(=O)NCC(=O)N[C@@H](CC(N)=O)C(=O)N[C@@H](CO)C(=O)N[C@@H](CC(N)=O)C(=O)N1 [Compound 3d, Cyclo-[Dodecanoic Acid-D-Ser-(S)-7-D-Ser-D-Tyr-D-Asn-Gly-Asn-Ser-Asn]] ([dS][dY][dN]GNSN; linker N-C via X4) | 11.8 min | >200 µg/mL
CCCCCCCCCCC(=O)N[C@@H](CO)C(=O)NC[C@H]1CC(=O)N[C@H](CO)C(=O)N[C@H](Cc2ccc(O)cc2)C(=O)N[C@H](CC(N)=O)C(=O)NCC(=O)N[C@@H](CC(N)=O)C(=O)N[C@@H](CO)C(=O)N[C@@H](CC(N)=O)C(=O)N1 [Compound 3e, Cyclo-[Undecanoic Acid-Ser-(R)-7-D-Ser-D-Tyr-D-Asn-Gly-Asn-Ser-Asn]] ([dS][dY][dN]GNSN; linker N-C via X6) | 9.4 min | >200 µg/mL
CCCCCCCCCCCC(=O)N[C@@H](CO)C(=O)NC[C@H]1CC(=O)N[C@H](CO)C(=O)N[C@H](Cc2ccc(O)cc2)C(=O)N[C@H](CC(N)=O)C(=O)NCC(=O)N[C@@H](CC(N)=O)C(=O)N[C@@H](CO)C(=O)N[C@@H](CC(N)=O)C(=O)N1 [Compound 3f, Cyclo-[Dodecanoic Acid-Ser-(R)-7-D-Ser-D-Tyr-D-Asn-Gly-Asn-Ser-Asn]] ([dS][dY][dN]GNSN; linker N-C via X10) | 11.8 min | 200 µg/mL (≈ 181 µM)
CCCCCCCCCCC(=O)N[C@H](CO)C(=O)NC[C@H]1CC(=O)N[C@H](CO)C(=O)N[C@H](Cc2ccc(O)cc2)C(=O)N[C@H](CC(N)=O)C(=O)NCC(=O)N[C@@H](CC(N)=O)C(=O)N[C@@H](CO)C(=O)N[C@@H](CC(N)=O)C(=O)N1 [Compound 3g, Cyclo-[Undecanoic Acid-D-Ser-(R)-7-D-Ser-D-Tyr-D-Asn-Gly-Asn-Ser-Asn]] ([dS][dY][dN]GNSN; linker N-C via X1) | 9.6 min | >200 µg/mL
CCCCCCCCCCCC(=O)N[C@H](CO)C(=O)NC[C@H]1CC(=O)N[C@H](CO)C(=O)N[C@H](Cc2ccc(O)cc2)C(=O)N[C@H](CC(N)=O)C(=O)NCC(=O)N[C@@H](CC(N)=O)C(=O)N[C@@H](CO)C(=O)N[C@@H](CC(N)=O)C(=O)N1 [Compound 3h, Cyclo-[Dodecanoic Acid-D-Ser-(R)-7-D-Ser-D-Tyr-D-Asn-Gly-Asn-Ser-Asn]] ([dS][dY][dN]GNSN; linker N-C via X7) | 11.8 min | >200 µg/mL
CCCCCCCCCCC(=O)N[C@H](C(=O)NC[C@@H]1CC(=O)N[C@H](CO)C(=O)N[C@H](Cc2ccc(O)cc2)C(=O)N[C@H](CC(N)=O)C(=O)NCC(=O)N[C@@H](CC(N)=O)C(=O)N[C@@H](CO)C(=O)N[C@@H](CC(N)=O)C(=O)N1)[C@@H](C)O [Compound 4a, Cyclo-[Undecanoic Acid-Thr-(S)-7-D-Ser-D-Tyr-D-Asn-Gly-Asn-Ser-Asn]] ([dS][dY][dN]GNSN; linker N-C via X12) | 10.4 min | >200 µg/mL
CCCCCCCCNC(=O)[C@H](O)[C@@H](O)C(=O)NC[C@@H]1CC(=O)N[C@H](CO)C(=O)N[C@H](Cc2ccc(O)cc2)C(=O)N[C@H](CC(N)=O)C(=O)NCC(=O)N[C@@H](CC(N)=O)C(=O)N[C@@H](CO)C(=O)N[C@@H](CC(N)=O)C(=O)N1 [Compound 5a, Cyclo-[(2R,3R)-2,3-dihydroxy-4-(octylamino)-4-oxobutanoic Acid-(S)-7-D-Ser-D-Tyr-D-Asn-Gly-Asn-Ser-Asn]] ([dS][dY][dN]GNSN; linker N-C via X11) | 5.3 min | >200 µg/mL
CCCCCCCCCCC(=O)N[C@H](C(=O)N[C@H]1CCCNC(=O)[C@H](CC(N)=O)NC(=O)[C@H](CO)NC(=O)[C@H](CC(N)=O)NC(=O)CNC(=O)[C@@H](CC(N)=O)NC(=O)[C@@H](Cc2ccc(O)cc2)NC(=O)[C@@H](CO)NC1=O)[C@@H](C)O [Compound 7, Cyclo-[Undecanoic Acid-Thr-Orn-D-Ser-D-Tyr-D-Asn-Gly-Asn-Ser-Asn]] (Undecanoyl-T[Orn][dS][dY][dN]GNSN; lactam 2-C) | 10.6 min | >200 µg/mL
CCCCCCCCNC(=O)[C@H](O)[C@@H](O)C(=O)N[C@H]1CCCNC(=O)[C@H](CC(N)=O)NC(=O)[C@H](CO)NC(=O)[C@H](CC(N)=O)NC(=O)CNC(=O)[C@@H](CC(N)=O)NC(=O)[C@@H](Cc2ccc(O)cc2)NC(=O)[C@@H](CO)NC1=O [Compound 8, Cyclo-[(2R,3R)-2,3-Dihydroxy-4-(octylamino)-4-oxobutanoic Acid-Orn-D-Ser-D-Tyr-D-Asn-Gly-Asn-Ser-Asn]] (X9-[Orn][dS][dY][dN]GNSN; lactam 1-C) | 5.8 min | >200 µg/mL

The remaining lines, values ahead:

tR [1] | MIC [2] | Structure (SMILES)
9.7 min | >200 µg/mL | CCCCCCCCCCC(=O)N[C@@H](CO)C(=O)N[C@H]1CCCNC(=O)[C@H](CC(N)=O)NC(=O)[C@H](CO)NC(=O)[C@H](CC(N)=O)NC(=O)CNC(=O)[C@@H](CC(N)=O)NC(=O)[C@@H](Cc2ccc(O)cc2)NC(=O)[C@@H](CO)NC1=O [Compound 6a, Cyclo-[Undecanoic Acid-Ser-Orn-D-Ser-D-Tyr-D-Asn-Gly-Asn-Ser-Asn]] (Undecanoyl-S[Orn][dS][dY][dN]GNSN; lactam 2-C)
12.1 min | >200 µg/mL | CCCCCCCCCCCC(=O)N[C@@H](CO)C(=O)N[C@H]1CCCNC(=O)[C@H](CC(N)=O)NC(=O)[C@H](CO)NC(=O)[C@H](CC(N)=O)NC(=O)CNC(=O)[C@@H](CC(N)=O)NC(=O)[C@@H](Cc2ccc(O)cc2)NC(=O)[C@@H](CO)NC1=O [Compound 6b, Cyclo-[Dodecanoic Acid-Ser-Orn-D-Ser-D-Tyr-D-Asn-Gly-Asn-Ser-Asn]] (Lauroyl-S[Orn][dS][dY][dN]GNSN; lactam 2-C)
– | >200 µg/mL | CCCCCCCCCCC(=O)N[C@H](CO)C(=O)N[C@H]1CCCNC(=O)[C@H](CC(N)=O)NC(=O)[C@H](CO)NC(=O)[C@H](CC(N)=O)NC(=O)CNC(=O)[C@@H](CC(N)=O)NC(=O)[C@@H](Cc2ccc(O)cc2)NC(=O)[C@@H](CO)NC1=O [Compound 6c, Cyclo-[Undecanoic Acid-D-Ser-Orn-D-Ser-D-Tyr-D-Asn-Gly-Asn-Ser-Asn]] (Undecanoyl-[dS][Orn][dS][dY][dN]GNSN; lactam 2-C)
11.2 min | >200 µg/mL | CCCCCCCCCCCC(=O)N[C@H](CO)C(=O)N[C@H]1CCCNC(=O)[C@H](CC(N)=O)NC(=O)[C@H](CO)NC(=O)[C@H](CC(N)=O)NC(=O)CNC(=O)[C@@H](CC(N)=O)NC(=O)[C@@H](Cc2ccc(O)cc2)NC(=O)[C@@H](CO)NC1=O [Compound 6d, Cyclo-[Dodecanoic Acid-D-Ser-Orn-D-Ser-D-Tyr-D-Asn-Gly-Asn-Ser-Asn]] (Lauroyl-[dS][Orn][dS][dY][dN]GNSN; lactam 2-C)
